Measured values taken from patent US20200187502A1, “MICROBIOCIDAL OXADIAZOLE DERIVATIVES” (SYNGENTA PARTICIPATIONS AG, priority 2017, published 2020).

Legend:
[1] = system: Glomerella lacenarium (Colletotrichum lacenarium); experiment: Fungicidal activity, liquid culture, cucumber preventative (anthracnose); type: cell-based; conditions: 20 ppm in the applied formulation, liquid culture in PDB, inhibition of growth measured photometrically 3 to 4 days after application, compared to untreated control, read-out: disease control
Description: Mycelia fragments or conidia suspensions of a fungus prepared either freshly from liquid cultures of the fungus or from cryogenic storage, are directly mixed into nutrient broth. DMSO solutions of the test compound (max. 10 mg/ml) are diluted with 0.025% Tween20 by a factor of 50 and 10 μl of this solution is pipetted into a microtiter plate (96-well format). The nutrient broth containing the fungal spores/mycelia fragments is then added to give an end concentration of the tested compound. The test plates are incubated in the dark at 24° C. and 96% relative humidity. The inhibition of fungal growth is determined photometrically after 2 to 7 days, depending on the pathosystem, and percent antifungal activity relative to the untreated check is calculated.
Conidia of the fungus from cryogenic storage are directly mixed into nutrient broth (PDB—potato dextrose broth). After placing a (DMSO) solution of test compound into a microtiter plate (96-well format), the nutrient broth containing the fungal spores is added. The test plates are incubated at 24° C. and the inhibition of growth is measured photometrically 3 to 4 days after application.
The following compounds at 20 ppm in the applied formulation give at least 80% disease control in this test when compared to untreated control under the same conditions, which show extensive disease development.

[2] = system: Puccinia recondita f. Sp. Tritici; experiment: Fungicidal activity, wheat leaf disc curative (brown rust); type: in vivo; conditions: foliar, 200 ppm in the applied formulation, wheat leaf segments cv. Kanzler, curative (applied 1 day after inoculation), compared to untreated control, 6 to 8 days after application, read-out: disease control
Description: (§1) Leaf disks or leaf segments of various plant species are cut from plants grown in a greenhouse. The cut leaf disks or segments are placed in multiwell plates (24-well format) onto water agar. The leaf disks are sprayed with a test solution before (preventative) or after (curative) inoculation. Compounds to be tested are prepared as DMSO solutions (max. 10 mg/ml) which are diluted to the appropriate concentration with 0.025% Tween20 just before spraying. The inoculated leaf disks or segments are incubated under defined conditions (temperature, relative humidity, light, etc.) according to the respective test system. A single evaluation of disease level is carried out 3 to 14 days after inoculation, depending on the pathosystem. Percent disease control relative to the untreated check leaf disks or segments is then calculated.
Wheat leaf segments cv. Kanzler are placed on agar in multiwell plates (24-well format). The leaf segments are then inoculated with a spore suspension of the fungus. Plates were stored in darkness at 19° C. and 75% relative humidity. The formulated test compound diluted in water was applied 1 day after inoculation. The leaf segments were incubated at 19° C. and 75% relative humidity under a light regime of 12 hours light/12 hours darkness in a climate cabinet and the activity of a compound was assessed as percent disease control compared to untreated when an appropriate level of disease damage appears in untreated check leaf segments (6 to 8 days after application).
(§2) The following compounds at 200 ppm in the applied formulation give at least 80% disease control in this test when compared to untreated control leaf disks under the same conditions, which show extensive disease development.

[3] = system: Puccinia recondita f. Sp. Tritici; experiment: Fungicidal activity, wheat leaf disc preventative (brown rust); type: in vivo; conditions: foliar, 200 ppm in the applied formulation, wheat leaf segments cv. Kanzler, compared to untreated control, 7 to 9 days after application, read-out: disease control
Description: as §1
Wheat leaf segments cv. Kanzler were placed on agar in multiwell plates (24-well format) and sprayed with the formulated test compound diluted in water. The leaf disks were inoculated with a spore suspension of the fungus 1 day after application. The inoculated leaf segments were incubated at 19° C. and 75% relative humidity (rh) under a light regime of 12 hours light/12 hours darkness in a climate cabinet and the activity of a compound was assessed as percent disease control compared to untreated when an appropriate level of disease damage appears in untreated check leaf segments (7 to 9 days after application).
as §2

SMILES	inhibition of growth at 20 ppm [1] [%]	pest or weed control at 200 ppm [2] [%]	pest or weed control at 200 ppm [3] [%]
COC(C)C(=O)N(OC)C(C)c1ccc(-c2noc(C(F)(F)F)n2)s1 (stereo not shown) [Compound 1.49, N,2-dimethoxy-N-[1-[5-[5-(trifluoromethyl)-1,2,4-oxadiazol-3-yl]-2-thienyl]ethyl]propanamide]	≥ 80	≥ 80	
COCCN(CCOC)C(=O)N(Cc1ccc(-c2noc(C(F)(F)F)n2)s1)OC [Compound 1.56, 1-methoxy-3,3-bis(2-methoxyethyl)-1-[[5-[5-(trifluoromethyl)-1,2,4-oxadiazol-3-yl]-2-thienyl]methyl]urea]	≥ 80	≥ 80	
CON(Cc1ccc(-c2noc(C(F)(F)F)n2)s1)C(=O)N1CCCO1 [Compound 1.57, N-methoxy-N-[[5-[5-(trifluoromethyl)-1,2,4-oxadiazol-3-yl]-2-thienyl]methyl]isoxazolidine-2-carboxamide]	≥ 80	≥ 80	
COC(C)C(=O)N(Cc1ccc(-c2noc(C(F)(F)F)n2)s1)C(C)C (stereo not shown) [Compound 4.18, N-isopropyl-2-methoxy-N-[[5-[5-(trifluoromethyl)-1,2,4-oxadiazol-3-yl]-2-thienyl]methyl]propanamide]	≥ 80	≥ 80	
CCC(C)C(=O)N(CC)Cc1ccc(-c2noc(C(F)(F)F)n2)s1 (stereo not shown) [Compound 4.27, N-ethyl-2-methyl-N-[[5-[5-(trifluoromethyl)-1,2,4-oxadiazol-3-yl]-2-thienyl]methyl]butanamide]	≥ 80	≥ 80	
CCC(C)C(=O)N(Cc1ccc(-c2noc(C(F)(F)F)n2)s1)C1CC1 (stereo not shown) [Compound 4.57, N-cyclopropyl-2-methyl-N-[[5-[5-(trifluoromethyl)-1,2,4-oxadiazol-3-yl]-2-thienyl]methyl]butanamide]	≥ 80	≥ 80	
CCC(C)C(=O)N(Cc1ccc(-c2noc(C(F)(F)F)n2)s1)OCC(F)F (stereo not shown) [Compound 4.66, N-(2,2-difluoroethoxy)-2-methyl-N-[[5-[5-(trifluoromethyl)-1,2,4-oxadiazol-3-yl]-2-thienyl]methyl]butanamide]	≥ 80	≥ 80	
Cc1ccc(S(=O)(=O)N(C)Cc2ccc(-c3noc(C(F)(F)F)n3)s2)cc1 [Compound 6.28, N,4-dimethyl-N-[[5-[5-(trifluoromethyl)-1,2,4-oxadiazol-3-yl]-2-thienyl]methyl]benzenesulfonamide]		≥ 80	
CCS(=O)(=O)N(Cc1ccc(-c2noc(C(F)(F)F)n2)s1)C1CC1 [Compound 6.35, N-cyclopropyl-N-[[5-[5-(trifluoromethyl)-1,2,4-oxadiazol-3-yl]-2-thienyl]methyl]ethanesulfonamide]	≥ 80		≥ 80
O=S(=O)(C1CC1)N(Cc1ccc(-c2noc(C(F)(F)F)n2)s1)C1CC1 [Compound 6.38, N-cyclopropyl-N-[[5-[5-(trifluoromethyl)-1,2,4-oxadiazol-3-yl]-2-thienyl]methyl]cyclopropanesulfonamide]	≥ 80		≥ 80
CCCS(=O)(=O)N(Cc1ccc(-c2noc(C(F)(F)F)n2)s1)C1CC1 [Compound 6.39, N-cyclopropyl-N-[[5-[5-(trifluoromethyl)-1,2,4-oxadiazol-3-yl]-2-thienyl]methyl]propane-1-sulfonamide]	≥ 80		≥ 80
CCN(Cc1ccc(-c2noc(C(F)(F)F)n2)s1)C(=O)C(=O)CC(C)C [Compound 6.44, N-ethyl-4-methyl-2-oxo-N-[[5-[5-(trifluoromethyl)-1,2,4-oxadiazol-3-yl]-2-thienyl]methyl]pentanamide]	≥ 80		≥ 80
CCN(Cc1ccc(-c2noc(C(F)(F)F)n2)s1)C(=O)C(=O)c1cccs1 [Compound 6.45, N-ethyl-2-oxo-2-(2-thienyl)-N-[[5-[5-(trifluoromethyl)-1,2,4-oxadiazol-3-yl]-2-thienyl]methyl]acetamide]	≥ 80		≥ 80
CN(Cc1ccc(-c2noc(C(F)(F)F)n2)s1)C(=O)C(=O)Cc1ccccc1 [Compound 6.50, N-methyl-2-oxo-3-phenyl-N-[[5-[5-(trifluoromethyl)-1,2,4-oxadiazol-3-yl]-2-thienyl]methyl]propanamide]	≥ 80		≥ 80
O=C(C(=O)N(Cc1ccc(-c2noc(C(F)(F)F)n2)s1)C1CC1)c1ccccc1 [Compound 6.54, N-cyclopropyl-2-oxo-2-phenyl-N-[[5-[5-(trifluoromethyl)-1,2,4-oxadiazol-3-yl]-2-thienyl]methyl]acetamide]	≥ 80		≥ 80
CC(C)(C)C(=O)C(=O)N(Cc1ccc(-c2noc(C(F)(F)F)n2)s1)C1CC1 [Compound 6.55, N-cyclopropyl-3,3-dimethyl-2-oxo-N-[[5-[5-(trifluoromethyl)-1,2,4-oxadiazol-3-yl]-2-thienyl]methyl]butanamide]	≥ 80		≥ 80
CC(C)CC(=O)C(=O)N(Cc1ccc(-c2noc(C(F)(F)F)n2)s1)C1CC1 [Compound 6.58, N-cyclopropyl-4-methyl-2-oxo-N-[[5-[5-(trifluoromethyl)-1,2,4-oxadiazol-3-yl]-2-thienyl]methyl]pentanamide]	≥ 80		≥ 80
O=C(C(=O)N(Cc1ccc(-c2noc(C(F)(F)F)n2)s1)C1CC1)c1cccs1 [Compound 6.59, N-cyclopropyl-2-oxo-2-(2-thienyl)-N-[[5-[5-(trifluoromethyl)-1,2,4-oxadiazol-3-yl]-2-thienyl]methyl]acetamide]	≥ 80		≥ 80
O=C(C(=O)N(Cc1ccc(-c2noc(C(F)(F)F)n2)s1)C1CC1)c1ccco1 [Compound 6.60, N-cyclopropyl-2-(2-furyl)-2-oxo-N-[[5-[5-(trifluoromethyl)-1,2,4-oxadiazol-3-yl]-2-thienyl]methyl]acetamide]	≥ 80		≥ 80
O=C(C(=O)N(Cc1ccc(-c2noc(C(F)(F)F)n2)s1)OCC(F)F)c1ccccc1 [Compound 6.61, N-(2,2-difluoroethoxy)-2-oxo-2-phenyl-N-[[5-[5-(trifluoromethyl)-1,2,4-oxadiazol-3-yl]-2-thienyl]methyl]acetamide]	≥ 80		≥ 80
O=C(C(=O)N(Cc1ccc(-c2noc(C(F)(F)F)n2)s1)OCC(F)F)c1cccs1 [Compound 6.63, N-(2,2-difluoroethoxy)-2-oxo-2-(2-thienyl)-N-[[5-[5-(trifluoromethyl)-1,2,4-oxadiazol-3-yl]-2-thienyl]methyl]acetamide]	≥ 80		≥ 80
O=C(C(=O)N(Cc1ccc(-c2noc(C(F)(F)F)n2)s1)OCC(F)F)c1ccco1 [Compound 6.64, N-(2,2-difluoroethoxy)-2-(2-furyl)-2-oxo-N-[[5-[5-(trifluoromethyl)-1,2,4-oxadiazol-3-yl]-2-thienyl]methyl]acetamide]	≥ 80		≥ 80
